What all share (experiment): NCI tumour cell line growth inhibition, 48 h
The subject of test [1] is 786-0 renal.
In test [2] the test system is DLD-1 colon.
Test [3] deals with P388/ADR leukemia.
The subject of test [4] is SN12K1 renal.
Test [5] deals with SNB-78 CNS.
The test system of test [6] is LXFL 529 NSCLC.
The test system of test [7] is RXF-631 renal.

SMILES strings stand for the structures.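 In this assay, cells in 96-well plates receive the compound at five concentrations for 48 hours. Endpoints are linearly interpolated between the surrounding concentrations. TGI: concentration producing complete growth inhibition.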

Experimental findings from PubChem BioAssay (NCI) are described below.

Regarding `CC1=CC(C)C/C=C/C2C3OC3(C)C(C)C3C(Cc4c[nH]c5ccccc45)NC(=O)C23C(=O)C=CC(=O)C1O` (centres undefined), in test [1], the TGI was 10.8 µM.

Regarding `CC(=O)N(C)c1ccc(Nc2cc(C)[nH]c3ccc4ncnc4c23)cc1`, the TGI in test [1] worked out at 18.8 µM; in test [2] it was 74.2 µM; in test [3], 228 µM; in test [4], 16.6 µM; in test [5], 53.6 µM.

On to `COc1ccc(C2COc3cc(OC(C)=O)c(OC(C)=O)cc3C2)cc1` (centres undefined), for which the TGI in test [2] came out at 54.8 µM; in test [3] it was 17.7 µM; in test [4] it was 35.7 µM; in test [5], 81.4 µM.

In the case of `O=C(O)c1ccc(Nc2c3ccccc3nc3ccccc23)cc1`, the results for the TGI in test [3], in test [4] and in test [5] were 98.4 µM, greater than 100 µM and greater than 100 µM, respectively.

In test [1], `c1nc(OCC2CCCCC2)c2[nH]cnc2n1` gave a TGI greater than 100 µM.

On to `CC(C)(C)[Si](OC1CC(n2cnc3c(N)ncnc32)OC1CO)(c1ccccc1)c1ccccc1` (centres undefined), for which the results for the TGI in test [2], in test [6] and in test [5] were 30 µM, greater than 100 µM and greater than 100 µM, respectively.

In test [1], `O=C(O)CC(CC(=O)O)C(=O)O` came in with a TGI greater than 100 µM.

On to `O=C1C(Cl)N(c2ccc(Cl)cc2)C1c1c[nH]c2ccccc12` (centres undefined), for which, in test [6], the TGI was found to be 30.2 µM.

Consider `COc1ccc(N2C(=O)/C(=C(\C)c3cc4ccccc4oc3=O)N=C2c2cc([N+](=O)[O-])ccc2Cl)cc1`, for which the TGI in test [2], in test [6], in test [7] and in test [5] was greater than 100 µM throughout.

In test [1], `C/C(=N\NC(=S)N1CCCCC1)c1nc2ncccc2[nH]1` returned a TGI greater than 100 µM.
